Laboratory results published in patent US20230265068A1, “TRANSIENT RECEPTOR POTENTIAL CANONICAL 3 INHIBITORS AND METHODS OF USE THEREOF” (University of Tennessee Research Foundation, priority 2020, published 2023).

Columns and labels:
rTRPV4 = target: T1, rTRPV4 (Rattus norvegicus, UniProt Q9ERZ8); assay: whole-cell patch clamp selectivity, HEK 293 cells overexpressing rTRPV4; type: cell-based; conditions: HEK293, with agonist, solutions without Ca2+, read-out: % of the current of rTRPV4 inhibited
T1 construct: expressed in transfected cells; host or cells: HEK293, transient transfection, pMO vector
T1 sequence (Q9ERZ8 whole entry): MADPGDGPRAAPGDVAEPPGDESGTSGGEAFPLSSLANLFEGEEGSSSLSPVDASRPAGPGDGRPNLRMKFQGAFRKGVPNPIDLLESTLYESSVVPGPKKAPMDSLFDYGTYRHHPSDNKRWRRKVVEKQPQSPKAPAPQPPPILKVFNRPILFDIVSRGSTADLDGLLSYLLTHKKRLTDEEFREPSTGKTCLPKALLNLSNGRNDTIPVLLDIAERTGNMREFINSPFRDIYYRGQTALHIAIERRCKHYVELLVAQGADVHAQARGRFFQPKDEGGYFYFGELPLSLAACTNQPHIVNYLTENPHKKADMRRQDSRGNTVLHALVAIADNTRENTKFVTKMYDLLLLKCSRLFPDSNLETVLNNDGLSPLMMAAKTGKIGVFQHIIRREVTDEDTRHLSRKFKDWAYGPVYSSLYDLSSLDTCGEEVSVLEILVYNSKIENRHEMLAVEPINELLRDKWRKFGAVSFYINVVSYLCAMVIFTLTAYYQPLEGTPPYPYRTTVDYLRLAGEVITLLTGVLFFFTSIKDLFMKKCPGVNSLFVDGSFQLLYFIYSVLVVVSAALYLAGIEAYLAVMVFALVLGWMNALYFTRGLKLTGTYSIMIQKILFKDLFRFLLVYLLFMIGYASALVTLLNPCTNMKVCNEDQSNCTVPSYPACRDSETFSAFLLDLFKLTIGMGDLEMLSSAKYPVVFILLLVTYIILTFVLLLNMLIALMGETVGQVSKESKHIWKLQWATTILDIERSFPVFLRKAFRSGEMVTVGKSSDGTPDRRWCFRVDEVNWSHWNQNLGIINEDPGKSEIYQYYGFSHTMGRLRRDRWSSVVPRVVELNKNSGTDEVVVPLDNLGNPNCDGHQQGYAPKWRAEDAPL
Procedure: (§1) Human embryonic kidney 293 (HEK293; catalog number CRL-1573) cells were cultured in Dulbecco's modified Eagle's medium (Invitrogen) supplemented with 10% fetal bovine serum and 1% penicillin-streptomycin at 37° C. and 5% CO2. Constructs cloned in pMO (a pcDNA3-modified vector) were co-transfected with GFP-pMO, using Lipofectamine 2000 (Invitrogen) according to the manufacturer's instructions. Macroscopic currents in the whole-cell patch clamp configuration were recorded 18-24 h post-transfection. The extracellular solution contained 140 mM NaCl, 6 mM KCl, 2 mM MgCl2, 10 mM HEPES, and 10 mM glucose (pH 7.4). Pipettes were made of borosilicate glass (outer diameter, 1.5 mm; inner diameter, 1.10 mm; Sutter Instruments) and fire-polished with a resistance between 2.8 and 4.0 megaohms when filled with an intracellular solution that contained 140 mM CsCl, 5 mM EGTA, and 10 mM HEPES, pH 7.2. Currents were recorded with a Multiclamp 700B amplifier (Molecular Devices) using a 1-s ramp from −100 to 100 mV. […] Data were acquired with a sampling rate of 20 kHz, low-pass filtered (10 kHz), and analyzed offline using Clampfit v10.4.2.0 (Molecular Devices). […]

hTRPC7 = target: T2, hTRPC7 (Homo sapiens, UniProt Q9HCX4); assay: whole-cell patch clamp selectivity, HEK 293 cells overexpressing hTRPC7; type: cell-based; conditions: HEK293, with agonist, solutions without Ca2+, read-out: % of the current of hTRPC7 inhibited
T2 construct: expressed in transfected cells; host or cells: HEK293, transient transfection, pMO vector
T2 sequence (Q9HCX4 1-862): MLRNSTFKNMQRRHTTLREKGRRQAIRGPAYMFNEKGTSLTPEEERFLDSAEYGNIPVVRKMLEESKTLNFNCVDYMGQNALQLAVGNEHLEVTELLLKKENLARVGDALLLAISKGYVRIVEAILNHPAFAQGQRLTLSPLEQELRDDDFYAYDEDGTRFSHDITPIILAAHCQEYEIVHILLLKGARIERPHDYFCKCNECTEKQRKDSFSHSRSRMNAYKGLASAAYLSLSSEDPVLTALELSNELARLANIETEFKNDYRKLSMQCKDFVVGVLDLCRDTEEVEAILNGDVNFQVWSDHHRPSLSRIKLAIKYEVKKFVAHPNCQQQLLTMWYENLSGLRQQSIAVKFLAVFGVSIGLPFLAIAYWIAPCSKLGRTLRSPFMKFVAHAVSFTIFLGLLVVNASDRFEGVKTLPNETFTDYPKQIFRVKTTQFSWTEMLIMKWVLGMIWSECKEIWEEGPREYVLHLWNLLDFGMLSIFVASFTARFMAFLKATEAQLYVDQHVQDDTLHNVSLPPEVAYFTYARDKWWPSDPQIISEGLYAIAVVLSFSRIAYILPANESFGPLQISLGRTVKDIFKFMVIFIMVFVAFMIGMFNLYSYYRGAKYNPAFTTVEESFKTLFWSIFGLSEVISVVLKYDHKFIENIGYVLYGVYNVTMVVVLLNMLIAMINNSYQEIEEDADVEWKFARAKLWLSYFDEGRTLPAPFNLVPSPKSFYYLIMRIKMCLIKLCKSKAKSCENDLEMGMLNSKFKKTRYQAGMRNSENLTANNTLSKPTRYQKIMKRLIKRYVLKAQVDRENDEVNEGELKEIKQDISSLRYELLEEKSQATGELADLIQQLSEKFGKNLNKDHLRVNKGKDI
Procedure: as §1

[1] = metabolic stability in mouse liver microsomes; type: in vitro ADME; conditions: mouse, microsomes
Procedure: The metabolic stability of compound 22 was tested prior to the next phase of in vivo study. […] The maximum tolerated dose (MTD) study was subsequently performed to investigate its in vivo toxicity (FIGS. 4A and 4B). The second major limitation of Pyr3 is its toxicity due to its alkylating tail moiety. While replacing only the fast-metabolizing head ester group in Pyr3 with a stable amide (compound 79) improved metabolic stability, a single IP injection of compound 79 at 200 mg/kg killed all mice within 24 h.

hippocampal neurons = assay: toxicity of compound alone in hippocampal neuronal culture; type: cell-based, rat; conditions: compound alone at different concentrations
Procedure: To explore the potential biological effects of compound 22 in a TRPC3 related disease model, its neuroprotective ability in primary cultured neurons (14 DIV prepared from E17 rats as described) was evaluated. The effects on neuron dendritic morphology were measured by imaging. Mature hippocampal neurons (DIV=14) were treated with CHO control medium, or naturally secreted Aβ-containing conditioned medium (7PA2), or in combination with compound 22 or Pyr3 at different concentrations, for 16 hours, followed by immunocytochemistry using an antibody against MAP2 and DAPI (data not shown). […] Hippocampal neurons (DIV=14) were treated with compound 22 or Pyr3 alone at different concentrations, followed by immunocytochemistry staining with MAP2 and DAPI (data not shown).

CCNC(=O)c1cnn(-c2ccc(-n3ccc(Cl)c(Cl)c3=O)cc2)c1C(F)(F)F [Compound 22]
inhibition at 10 µM (rTRPV4): < 5%
inhibition at 10 µM (hTRPC7): ~22%
half-life [1]: > 4 h
toxicity in neuronal culture (hippocampal neurons): lack of toxicity
